{"source": "patent US20110059526A1", "about": "“REPROGRAMMING A CELL BY INDUCING A PLURIPOTENT GENE THROUGH USE OF AN HDAC MODULATOR” (NUPOTENTIAL, INC., priority 2008, published 2011)", "key": {"[1]": {"test_system": "Oct-4 expression, primary human lung cells", "assay": "Quantitative RT-PCR of Oct-4 in primary human lung cells grown with VPA", "type": "cell-based", "conditions": "5 mM VPA, three days, p<0.01", "protocol": "(§1) Cell culture. Primary human lung cells were purchased from Cell Applications (San Diego, Calif.), and were maintained at 37° C. in 95% humidity and 5% CO2 in Dulbecco's modified eagle medium (DMEM, Hyclone) containing 10% fetal bovine serum (FBS, Hyclone) and 0.5% penicillin and streptomycin. Cells were grown in the presence of 1 mM VPA, 5 mM VPA or in the absence of VPA for three days.\nQuantitative RT-PCR. Expression of Oct-4 and Nanog were determined by real-time RT-PCR for each culture condition (0 mM VPA, 1 mM VPA, and 5 mM VPA). Briefly, total RNA was prepared from cultures using Trizol Reagent (Life Technologies, Gaithersburg, Md.) and RNeasy Mini kit (Qiagen; Valencia, Calif.) with DNase I digestion according to manufacturer's protocol. Total RNA (1 μg) from each sample was subjected to oligo(dT)-primed reverse transcription (Invitrogen; Carlsbad, Calif.). Real-time PCR reactions will be performed with PCR master mix on a 7300 real-time PCR system (Applied Biosystems; Foster City, Calif.). For each sample, 1 μl of diluted cDNA (1:10) will be added as template in PCR reactions. The expression level of Oct-4 and Nanog was normalized to GAPD."}, "[2]": {"test_system": "Oct-4 gene expression, HLFa", "assay": "Small molecules, Oct-4 gene expression by qRT-PCR (Table III), HLFa", "type": "cell-based, human", "conditions": "dose 5 mM, Rx Time 5"}, "[3]": {"test_system": "first exon of the Oct-4 gene", "assay": "Bisulfite sequencing of the Oct-4 promoter/first exon", "type": "cell-based", "conditions": "VPA-treated primary human lung cells", "protocol": "as §1\nBisulfite Sequencing. Bisulfite sequencing is the use of bisulfite treatment of DNA to determine the pattern of methylation. Bisulfite sequencing is based on the fact that treatment of DNA with bisulfite converts cytosine residues to uracil, but leaves 5-methylcytosine residues unaffected. Bisulfite treatment thus introduces specific changes in the DNA sequence that depend on the methylation status of individual cytosine residues, yielding very high-resolution information about the methylation status of a segment of DNA.\nMethylation of pluripotent gene promoters was analyzed by bisulfite sequencing. Briefly, DNA was purified by phenolchloroform-isoamylalcohol extraction. Bisulfite conversion was performed using the EZ DNA Methylation kit following the manufacturer's protocol (Zymo Research; Orange, Calif.). The conversion rate of all cytosines in non-CpG dinucleotides to uracils was 100%. Converted DNA was amplified by PCR using primers for human Oct3/4, Nanog, and SOX2. […]"}, "[4]": {"test_system": "Oct-4 gene expression, HLFf", "assay": "Small molecules, Oct-4 gene expression by qRT-PCR (Table III), HLFf", "type": "cell-based, human", "conditions": "dose 5 mM, Rx Time 5"}, "[5]": {"test_system": "Sox-2 and Nanog gene expression, human dermal fibroblasts", "assay": "VPA effect on Sox-2 and Nanog gene expression in human dermal fibroblasts (FIG. 17)", "type": "cell-based", "conditions": "VPA 5 mM, 4-6 days, multiple dermal fibroblast cell types", "protocol": "FIG. 17 is a bar graph reporting the effects of VPA (5 mM) on gene expression of Oct-4, Sox-2 and Nanog in human dermal fibroblasts. Significance relative to control within each cell type: *p<0.05; **p<0.03; and ***p<0.01.\nQuantitative RT-PCR. Expression of Oct-4 was determined by real-time RT-PCR. Briefly, total RNA was prepared from cultures using Trizol Reagent (Life Technologies, Gaithersburg, Md.) and RNeasy Mini kit (Qiagen; Valencia, Calif.) with DNase I digestion according to manufacturer's protocol. Total RNA (1 μg) from each sample was subjected to oligo(dT)-primed reverse transcription (Invitrogen; Carlsbad, Calif.). Real-time PCR reactions will be performed with PCR master mix on a 7300 real-time PCR system (Applied Biosystems; Foster City, Calif.). For each sample, 1 μl of diluted cDNA (1:10) will be added as template in PCR reactions. The expression level of Cot-4 was normalized to glyceraldehyde 3-phosphate-dehydrogenase (GAPD).\nPluripotency gene expression was increased in multiple dermal fibroblast cell types following exposure to VPA for 4-6 days. mRNA levels were determined by real time qRT-PCR and normalized with GAPDH."}, "[6]": {"test_system": "stemness genes, primary human lung cells", "assay": "Human Embryonic Taqman Low Density Array (TLDA) analysis of stemness genes in VPA-treated cells", "type": "cell-based", "conditions": "5 mM VPA, three days", "protocol": "as §1\nEmbryonic Taqman Low Density Array Analysis. Expression levels of several genes that contribute to a cell being pluripotentail (“stemness genes”) were determined using the Human Embryonic Taqman Low Density Array Analysis (TLDA). Several stemness genes were analyzed: GABRB3, LEFTB, NR6A1, PODXL, and PTEN. In addition, the expression level of the DNA methyl transferase DNMT3B was determined. The Applied Biosystems Human Embryonic TLDA, which contains 90 embryonic stem cell and developmental genes and 6 endogenous control genes, was used for quantitative real time RT-PCR to quantify relative expression levels (Applied Biosytems, Foster City, Calif.). Briefly, following reverse-transcription of RNA using the ABI High Capacity cDNA Reverse Transcription Kit (ABI; Foster City, Calif.), 150 ng sample cDNA in 50 μl nuclease-free water+50 μl ABI Universal Taqman 2×PCR Master Mix was pipetted into each port of the TLDA microfluidic card, and analyzed on the ABI 7900HT Fast Real Time PCR System. The ^ΔΔCT method was used to calculate relative quantities (fold change) in gene expression levels in treated cells relative to untreated control cells. The treated cells may also be compared to federally-approved human embryonic stem cells."}, "[7]": {"test_system": "HDAC and DNMT1 gene expression, BJ dermal fibroblasts", "assay": "VPA effect on HDAC and DNMT1 gene expression in BJ dermal fibroblasts (FIG. 18)", "type": "cell-based, human", "conditions": "500 μM VPA, 7 days, BJFs; HDAC1 p<0.01, SIRT4 p 0.05, DNMT1 p<0.005", "protocol": "FIG. 18 is a bar graph reporting the effects of VPA (500 μM) on HDAC and DNMT1 gene expression in BJ dermal fibroblasts (obtained from ATCC).\nFIG. 18 reports the effects of 500 μM VPA on HDAC and DNMT1 gene expression in BJFs. Cells were exposed to VPA for 7 days. […] Statistical significance was as follows: HDAC1 (p<0.01); SIRT4 (p, 0.05) and DNMT1 (p<0.005)."}}}
{"smiles": "CCCC(CCC)C(=O)O", "note": "[VPA, valproic acid]", "values": [{"measurement": "expression of Oct4 up-regulated compared to control cells", "setting": "[1]", "result": "~2.7", "unit": "fold"}, {"measurement": "Oct4 FC", "setting": "[2]", "result": 4}, {"measurement": "methylation of cytosines in the first exon of Oct-4", "setting": "[3]", "result": "demethylation of two cytosines"}, {"measurement": "Oct4 FC", "setting": "[4]", "result": 5}, {"measurement": "expression of Sox-2 and Nanog", "setting": "[5]", "result": "increase in expression"}, {"measurement": "expression of DNA methyltransferase DNMT3B", "setting": "[6]", "result": "down-regulated"}, {"measurement": "stemness-related genes not detected in control cells (FOXD3, NR5A2, TERT, LIFR, SFRP2, TFCP2L1, LIN28, SOX2, XIST)", "setting": "[6]", "result": "induced"}, {"measurement": "expression of stemness genes GABRB3, LEFTB, NR6A1, PODXL, PTEN", "setting": "[6]; n=three replicates", "result": "up-regulation"}, {"measurement": "HDAC1, SIRT4 and DNMT1 gene expression compared to control cells", "setting": "[7]", "result": "significantly u-regulated"}]}
